Laboratory results as given in US20230041563A1, “N-(1,3,4-OXADIAZOL-2-YL)ARYLCARBOXAMIDES OR SALTS THEREOF, PREPARATION METHODS, HERBICIDAL COMPOSITIONS AND USES THEREOF” (priority 2018, published 2023).

Key:
Experiment in all cases: Weeding effect in post-emergence stage (greenhouse pot spray)
Assay type in all cases: in vivo
Setaria viridis = system: Setaria viridis
Description: (§1) The activity level criteria for plant damage (i.e., growth control rate) are as follows:
(§2) The above growth control rates are fresh weight control rates.
(§3) Experiment on weeding effect in post-emergence stage: monocotyledonous and dicotyledonous weed seeds (Descurainia sophia, Capsella bursa-pastoris, Abutilon theophrasti, Galium aparine, Stellaria media, Lithospermum arvense, rorippa indica, Alopecurus aequalis, Beckmannia syzigachne, Sclerochloa dura, Phleum paniculatum, Bromus japonicus, Aegilops tauschii, Phalaris arundinacea, Amaranthus retroflexus, Chenopodiaceae, Commelina communis, Sonchus arvensis, convolvulus arvensis, Cirsium setosum, Solanum nigrum, Acalypha australis, Digitaria sanguinalis, Echinochloa crusgalli, Setaria viridis, Setaria glauca, Leptochloa chinensis, Monochoria vaginalis, Sagittaria trifolia, Scirpus juncoides, Cyperus rotundus, Cyperus iria, Cyperus difformis, Fimbristylis, Portulaca oleracea, Xanthium sibiricum, Pharbitis nil) and major crop seeds (wheat, corn, rice, soybean, cotton, oilseed rape, millet, sorghum, potato, sesame, ricinus) were placed in plastic pots filled with soil, then covered with 0.5-2 cm of soil, allowed to grow in a good greenhouse environment. After 2 weeks of sowing, the test plants were treated in the 2 to 3 leaf stage. The tested compounds of the present invention were respectively dissolved in acetone, then added with Tween 80 and 1.5 liter/ha of emulsifiable concentrate of methyl oleate as synergist, diluted with a certain amount of water to obtain a solution with a certain concentration, and sprayed with a spray tower onto the plants. After the application, the plants were cultured for 3 weeks in the greenhouse, and then the experimental results of the weeding were counted. […]

Digitaria sanguinalis = system: Digitaria sanguinalis
Description: as §1, §2, §3

Echinochloa crusgalli = system: Echinochloa crusgalli
Description: as §1, §2, §3

Compound	Setaria viridis (activity level) (Setaria viridis; Table 3, dose 500 g a.i./ha)	Digitaria sanguinahs (activity level) (Digitaria sanguinalis; Table 3, dose 500 g a.i./ha)	Echinochloa crusgali (activity level) (Echinochloa crusgalli; Table 3, dose 500 g a.i./ha)	Setaria viridis (activity level) (Setaria viridis; Table 3, dose 125 g a.i./ha)	Digitaria sanguinahs (activity level) (Digitaria sanguinalis; Table 3, dose 125 g a.i./ha)	Echinochloa crusgali (activity level) (Echinochloa crusgalli; Table 3, dose 125 g a.i./ha)	other results
Cc1nnc(NC(=O)c2ccc(C(F)(F)F)c([S@@+]([O-])CCC(F)(C(F)(F)F)C(F)(F)F)c2F)o1 [1-413 (R-configuration)]	5 (Level 5: growth control rate is above 85%)	5 (Level 5: growth control rate is above 85%)	5 (Level 5: growth control rate is above 85%)				
Cc1nnc(NC(=O)c2ccc(C(F)(F)F)c([S@@+]([O-])CCCN)c2F)o1 [1-432 (R-configuration)]	5 (Level 5: growth control rate is above 85%)	5 (Level 5: growth control rate is above 85%)	5 (Level 5: growth control rate is above 85%)				
COCCC[S@@+]([O-])c1c(C(F)(F)F)ccc(C(=O)Nc2nnc(C)o2)c1F [1-448 (R-configuration)]	5 (Level 5: growth control rate is above 85%)	5 (Level 5: growth control rate is above 85%)	5 (Level 5: growth control rate is above 85%)				
Cc1nnc(NC(=O)c2ccc(C(F)(F)F)c([S@@+]([O-])CCO)c2F)o1 [1-429 (R-configuration)]	5 (Level 5: growth control rate is above 85%)	5 (Level 5: growth control rate is above 85%)	5 (Level 5: growth control rate is above 85%)				
O=C(Nc1nnco1)c1ccc(C(F)(F)F)c([S@@+]([O-])CCC(F)(F)F)c1F [3-52 (R-configuration)]				5 (Level 5: growth control rate is above 85%)	5 (Level 5: growth control rate is above 85%)	5 (Level 5: growth control rate is above 85%)	
CC(C)C[S@@+]([O-])c1c(C(F)(F)F)ccc(C(=O)Nc2nnco2)c1F [3-20 (R-configuration)]				5 (Level 5: growth control rate is above 85%)	5 (Level 5: growth control rate is above 85%)	5 (Level 5: growth control rate is above 85%)	
CCCC[S@+]([O-])c1c(C(F)(F)F)ccc(C(=O)Nc2nnco2)c1F [3-14 (R-configuration)]							Setaria viridis (activity level) (Setaria viridis; Table 3, dose 60 g a.i./ha): 5 (Level 5: growth control rate is above 85%); Digitaria sanguinahs (activity level) (Digitaria sanguinalis; Table 3, dose 60 g a.i./ha): 5 (Level 5: growth control rate is above 85%); Echinochloa crusgali (activity level) (Echinochloa crusgalli; Table 3, dose 60 g a.i./ha): 5 (Level 5: growth control rate is above 85%)
COCC[S@+]([O-])c1c(C(F)(F)F)ccc(C(=O)Nc2nnc(C)o2)c1F [1-57 (R-configuration)]				5 (Level 5: growth control rate is above 85%)	5 (Level 5: growth control rate is above 85%)	5 (Level 5: growth control rate is above 85%)	
Cc1nnc(NC(=O)c2ccc(C(F)(F)F)c([S@@+]([O-])CC(C)F)c2F)o1 (stereo partly drawn) [1-404 (R-configuration)]							Setaria viridis (activity level) (Setaria viridis; Table 3, dose 60 g a.i./ha): 5 (Level 5: growth control rate is above 85%); Digitaria sanguinahs (activity level) (Digitaria sanguinalis; Table 3, dose 60 g a.i./ha): 5 (Level 5: growth control rate is above 85%); Echinochloa crusgali (activity level) (Echinochloa crusgalli; Table 3, dose 60 g a.i./ha): 5 (Level 5: growth control rate is above 85%)
Cc1nnc(NC(=O)c2ccc(C(F)(F)F)c([S@@+]([O-])CCOC(F)F)c2F)o1 [1-523 (R-configuration)]	5 (Level 5: growth control rate is above 85%)	5 (Level 5: growth control rate is above 85%)	5 (Level 5: growth control rate is above 85%)				
